These results are taken from US12528741B2, “Compositions for controlling microbially induced concrete corrosion” (The Regents of the University of Colorado, priority 2020, dated 2026).

Assay [1] concerns Acidithiobacillus spp. enrichments from sewer crown biofilm extract. The assay is described as follows: metal inhibition in liquid media (pH monitoring and cell counts of sewer enrichments). Type of assay: cell-based. The conditions noted are these: for cell density where pH dropped: average, aliquots when pH reached 2. The protocol:
FIGS. 4A-4E are graphs showing pH of enrichments including different levels of copper, cobalt, and silver, alone and in combinations. FIG. 4A: Cu^2+, FIG. 4B: Ag+, FIG. 4C: Cu/Ag in combination at a ratio 2:1, FIG. 4D: Co^2+, and FIG. 4E: Cu/Co in combination at a ratio 1:1. Enrichments were inoculated with 150 μL of biofilm extract from a corroded site and dominated by Acidithiobacillus spp. (>95% relative abundance).
FIGS. 5A-5E are graphs showing cell densities (cells/mL) observed in sewer sourced enrichment cultures including copper, cobalt and silver, alone and in combinations. FIG. 5A: Cu^2+, FIG. 5B: Ag^+, FIG. 5C: Cu^2+/Ag^+ in combination at a ratio 2:1, FIG. 5D: Co^2+, and FIG. 5E: Cu^2+/Co^2+ in combination at a ratio 1:1. Light grey bars indicate enrichment cultures where pH dropped below 2. Dark grey bars indicate batches where pH approached neutrality. (n=3).
The pH was monitored and used as an indicator for significant acidophilic SOB activity (FIGS. 4A-4E). Thiobacillus media, without any metal addition, was used as control for comparative analysis. […] Above 40 mg Cu/L, no pH depression was observed; in contrast, pH increased and plateaued at values ranging between 6.5 and 6.7. […] Where only cobalt and silver were used, all challenges indicated some evidence of acidophilic activity.
Combinations of metals were also studied, including Cu/Ag and Cu/Co at mass ratios of 2:1 and 1:1, respectively. […] Thresholds for pH were also observed above 10 mg Cu/L and 10 mg Co/L, where copper and cobalt were combined. This challenge was monitored over 30 days, indicating significant acidophilic activity after […] of incubation.
All metal species used for the challenges were based on nitrate salts. Therefore, inhibition in the presence of counter ions, was also monitored. Challenges with increasing NO3 concentrations (up to 200 mg NO3/L) where prepared with NaNO3. All challenges indicated acidophilic activity and no lag effect was ever observed.
Aliquots for cell quantification and genetic analyses were extracted from each experiment when pH reached 2. If no pH drop was observed, aliquots were extracted after 30 days of incubation. FIGS. 5A-5E illustrate the observed cell densities for all tests.
The inhibitory effects and minimum inhibitory concentration of Cu and Co were further assessed on mixed acidophilic cultures in a liquid format. Silver (Ag) was also included based on its literature history as broad-spectrum inhibitory metal. As for the solid inhibition assays, the results presented in this study support the hypothesis that different metal may ions have markedly different inhibitory potential against Acidithiobacillus spp. extracted from sewer crowns. […] In thiosulfate-based media, stationary phase for Acidithiobacillus cultures was reached 8 days after inoculation. The relative duration of experiments highlighted metal-induced lag phases from stable inhibitory concentrations. MICs clearly emerged for Cu alone (50 mg Cu/L), and in mixtures of Cu/Ag (50 mg/L and 25 mg/L) and Cu/Co (15 mg/L and 15 mg/L). […] No inhibitory synergism was observed when mixing Cu and Ag at a 2:1 ratio, when compared to any individual metal alone. However, synergistic inhibition was observed when Cu and Co were present at a 1:1 ratio. […] The literature is tenuous on this topic.

The test system of assay [2] is sulfur oxidizing bacteria isolated from a corroding sewer (Acidithiobacillus spp.). The assay is described as follows: modified Kirby-Bauer diffusion susceptibility test, metal-laden PAC on thiosulfate agar (solid media). Type of assay: cell-based, Acidithiobacillus thiooxidans. The conditions noted are these: average. The source says:
Bacterial cell abundance on the different areas of the plate surfaces were quantified using the epifluorescence microscopy methods known in the art. Areas selected for representative analysis were located in the center of each inhibition zone and the dispersed colonies area, and 10 mm into the bacterial monolayer.
Acidithiobacillus spp. response to metal mixtures is limited, however, the synergy of binary and ternary metal solutions have been described. […] The classic Kirby-Bauer antibiotic sensitivity test was adopted to assess diffusion inhibition of Acidithiobacillus thiooxidans growing on agar surfaces, in a longitudinal format.

A further assay relates to Acidithiobacillus spp. The assay is described as follows: 16S rRNA gene analysis of metal-exposed enrichment cultures. Type of assay: cell-based. The following applies: below 40 mg Cu/L. The source says: Cu and Cu/Ag mixtures were chosen to investigate the microbial communities under conditions where a pH threshold was observed. 16S rRNA gene analysis of 17 samples generated over 4 million sequences, classified in 611 operational taxonomic units (OTUs). After rarefaction analysis, the median Good's coverage was >99.9%, indicating enough sequencing data to confidently describe the diversity within these samples. Abundant OTUs consistently included 5 bacteria genera (FIGS. 6A-6B). Samples with metal concentration below the acidophilic inhibition threshold (40 mg Cu/L) indicated bacterial communities were dominated by Acidithiobacillus spp. […] When copper and silver were both present, Acidithiobacillus represented the dominant genus below the concentrations of 40 mg Cu/L and 20 mg Ag/L. The same genus represented less than 1% in batches above these concentrations. Following the same pattern as in the presence of Cu alone, the enrichments were also dominated by Burkholderia and Ralstonia spp. with significant presence of Sphingomonas spp., Leifsonia spp., Methylobacterium spp., and Microbacteriaceae spp. (when Cu ≥40 mg/L).

`[Co+2]` [Co, cobalt]: the “MIC, Co” value in assay [1] (30 days, Co alone or in Cu/Co) is over 50 µg/mL. Also, the “threshold Co concentration for pH depression” value in assay [1] (Co alone (highest tested) or Cu/Co 1:1) is given as at least 50 mg Co/L. For the same compound, in assay [1], the “cell density where pH dropped” value is on record as 3.81×10^8 cells/mL. For the same compound, in assay [2] (Co alone or co-loaded with Cu on PAC), the “metal normalized inhibition length (Co)” value is given as 1.23 cm·(mg Co/L)^−1.

As for `O=[N+]([O-])[O-].[Na+]` [NaNO3, reference compound], the “highest NO3 concentration still showing acidophilic activity, no lag” value in assay [1] (counter ion challenge) is given as at least 200 mg NO3/L.

On to `[Cu+2]` [Cu, copper], for which the “Acidithiobacillus relative abundance below threshold” value with Acidithiobacillus spp. is recorded as over 99%. For the same compound, the “MIC, Cu” value in assay [1] (30 days, Cu alone or in Cu/Ag 2:1, Cu/Co 1:1) is 50 µg/mL. Besides, the “cell density where pH did not drop” value in assay [1] (aliquots after 30 days) is given as 1.11×10^9 cells/mL. Also, in assay [1], the “cell density where pH dropped” value is reported as 1.06×10^8 cells/mL. The “minimum inhibitory concentration (MIC) for acidophilic growth” value in assay [1] (no significant pH drop after 30 days, Cu alone) was found to be 50 mg Cu/L. Also, the “endpoint pH of challenges at or below threshold” value in assay [1] (up to 40 mg Cu/L) is under 2 pH. Further, the “metal normalized inhibition length (Cu)” value in assay [2] (agar, 10 days, pH below 3, Cu alone or co-loaded with Co on PAC) is 2.36 cm·(mg Cu/L)^−1.

For `[Cd]` [Cd, cadmium], the “metal normalized inhibition length (Cd)” value in assay [2] is 0.74 cm·(mg Cd/L)^−1.

As for `[Ag]` [Ag, silver], the “MIC, Ag” value in assay [1] (30 days, Ag alone (highest tested) or in Cu/Ag) was over 75 µg/mL. Also, the “threshold Ag concentration for pH depression” value in assay [1] (Ag alone (highest tested) or Cu/Ag 2:1) is listed as at least 75 mg Ag/L. Also, the “cell density where pH dropped” value in assay [1] is given as 1.73×10^8 cells/mL.

Regarding `[Ni]` [Ni, nickel], in assay [2], the “metal normalized inhibition length (Ni)” value is given as 0.28 cm·(mg Ni/L)^−1.

As to `[Zn]` [Zn, zinc], the “metal normalized inhibition length (Zn)” value in assay [2] is reported as 0.14 cm·(mg Zn/L)^−1.
